Test results reported in a melting point compilation (Tetko et al.; mined from patent text by program, amines drawn as free bases though some values may be those of a salt).

SMILES	melting point
CN1CC(c2ccc(OCc3ccc(F)cc3)cn2)=C(O)C1=O	210 to 211 °C
COC(=O)c1ccc(NS(C)(=O)=O)c(C=NO)c1	160 °C
O=C(CCl)Nc1ccc(C(=O)N2CCc3cc(S(=O)(=O)n4cc(-c5ccccc5)[nH]c4=O)ccc32)cc1	188 to 189 °C
COC(=O)[C@H](Cc1ccc(NC(=O)c2c(Cl)cccc2Cl)cc1)NC(=O)C1(Cc2ccc(OC)cc2)CCCCC1	85 to 87 °C
CC1=NOC(c2c(S(C)(=O)=O)ccc(C(=O)c3cnn(C4CC4)c3O)c2Cl)C1 (stereo not drawn)	> 220 °C
CCCCCCCCCCCCCCCCCCOc1cc(OCCCOc2ccc(S(C)(=O)=O)cc2)cc(C(=O)O)c1	110 to 111 °C
CONC(=O)Nc1ccc(-c2sc3c(c2CN(C)Cc2ccccc2)c(=O)n(-c2ccccc2)c(=O)n3Cc2c(F)cccc2F)cc1	204 to 205 °C
CCCCCCCCSCCSc1nc(N)n[nH]1	85 to 86 °C
NC1=NS(=O)N=C1NCCCN(Cc1ccncc1)c1ccccn1 (stereo not drawn)	103 to 110 °C
CCCOc1ccc(-c2cc(C)cn2-c2ccc(S(N)(=O)=O)cc2)cc1	142 to 145 °C
CN(C)CCCOc1ccc(-c2nnc(Cc3ccc(Oc4ccccc4)cc3)o2)cc1	156 to 158 °C
O=C(OCC(F)(F)C(F)C(F)(F)F)C(F)CF (stereo not drawn)	84 to 86 °C
CC#CCOc1ccc(S(=O)C(C(=O)NO)c2ccc3ccccc3c2)cc1 (stereo not drawn)	157 °C
COC(=O)c1c(Sc2ccc(Cl)cc2)c2cc(C)ccc2n1C	110 to 111 °C
CCOC(=S)Nc1ccccc1NC(=S)NC(=O)OC	172 °C
CS(=O)(=O)C(Cl)=C(Cl)C#N	100 °C
N#Cc1ncccc1Oc1ccccc1Cl	90 to 92 °C
C=CCC(CO)C(O)c1cccnc1 (stereo not drawn)	112 to 113 °C
COc1ccc2c(c1)C(=O)N(c1cnc3c(ccn3C)c1)C2	198 to 199 °C
Cc1ccccc1S(=O)(=O)n1c(CCCC(=O)O)cc2nc(Cl)ccc21	161 °C
CC(NC(=O)Cc1cc(F)cc(F)c1)C(=O)NC1C(=O)NC(Cc2ccccc2)c2ccccc21 (stereo not drawn)	106 to 107 °C
C1=C(/C=C/c2cccs2)CCN(Cc2c[nH]c3ncccc23)C1	202 to 204 °C
Cc1ccc(-c2nnc(N3CCC4(CC3)OCCO4)nc2-c2ccc(C)cc2)cc1	169 to 170 °C
CC(C)(C)[Si](C)(C)Oc1ccc2c(c1)oc(=O)c1c3ccc(O[Si](C)(C)C(C)(C)C)cc3oc21	118 to 119 °C
O=[N+]([O-])c1ccc(C2OCc3ccc(CO)cc3CO2)cc1 (stereo not drawn)	146 °C

SMILES	melting point
OCCn1nnnc1S	135 to 137 °C
O=C(COc1cccnc1)c1ccccc1	81 to 82 °C
Cc1cc(C)c(-n2ccc3c(N)nn(C)c(=O)c32)c(C)c1	254 to 256 °C
N#Cc1ccc(OCCCCOc2ccc(-c3cc4ccc(C#N)cc4o3)cc2)cc1	187 to 189 °C
CCS(=O)(=O)Nc1cccc2c1N=C(c1ccc(-n3c(C)nc4cnccc43)cc1)CC(=O)N2	258 to 260 °C
O=c1[nH]nc(-c2cccc(Cl)c2)c2ncccc12	268 to 269 °C
CN(C(=O)Nc1ccc2ccccc2c1)c1cccc(-c2ccc(CC(Nc3ccccc3C(=O)c3ccccc3)C(=O)O)cc2)c1 (stereo not drawn)	125 °C
Cc1nccn1-c1ccc(-c2cnc([C@H](Cc3ccccn3)N(C=O)c3cc4ccccc4[nH]3)n2C)cc1	207 to 211 °C
Cc1ccc(Cc2cnc(NCCCN(C)c3ncccc3C)[nH]c2=O)cn1	83 to 85 °C
O=c1c2ccccc2sc2cc(OCC3CO3)cc(O)c12 (stereo not drawn)	161 °C
CON(Cc1ccc(C)cc1)C(=O)C1=C(O)C(=O)N(C)C1	150 to 152 °C
COc1ccc(C#N)cc1-c1cc(-c2cccc(C#N)c2)on1	241 to 243 °C
O=C1NC(=O)c2c1c(-c1ccccc1)cc1oc3ccc(O)cc3c21	288 to 290 °C
Fc1ccc(-c2nc(S)[nH]c2-c2ccncc2)cc1	386 to 388 °C
CCCCOCCOCCOc1ccc(-c2ccc(C(=O)O)cc2)cc1	174 to 176 °C
CCOC(=O)Cc1ccc(-c2nc(COc3ccc(COc4nn(-c5ccccc5)cc4/C=C\c4cncn4CC)cc3OC)c(C)o2)cc1	85 to 86 °C
CCCN1CCN(c2cc3ccccc3c(=O)[nH]2)CC1CO (stereo not drawn)	152 to 154 °C
CC(C)(C)OC(=O)N1CCC[C@H]1C(=O)OCCCNc1cccc2c1C(=O)c1ccccc1C2=O	121 °C
CCOC(=O)c1cn(Cc2ccccc2)nc1OCc1ccc(OCc2nc(-c3ccco3)oc2C)c(OCOC)c1	120 to 121 °C
Cc1ccc(-c2ccc(Sc3ccccc3)s2)cc1	85 to 86 °C
CN(C)CC(=O)N1Cc2cccc3c2N(CC3)c2ccccc21	104 to 107 °C
CCOC(=O)c1cnc2occ(Br)c2c1	107 to 108 °C
N#Cc1c(OCC#CI)nsc1SC(F)F	106 to 107 °C
Brc1c[nH]nc1-c1ccccc1	114 to 116 °C
CC(C)c1ccccc1SCc1cn(-c2ccc(S(C)(=O)=O)cc2)c(-c2ccc(Cl)cc2)n1	68 to 70 °C

SMILES	melting point
O=C(COc1cccc(C(=O)O)c1)NCCNC(=O)COc1cccc(C(=O)O)c1	282 °C
O=C(CCC(F)(F)F)c1c(O)c2cccnc2n(-c2ccccc2)c1=O	217 to 220 °C
Cc1cc(C#N)cc(C(=O)c2c(C(C)C)c(=O)[nH]c(=O)n2CC2(CC(=O)O)CC2)c1	244 to 245 °C
CCCC[C@H](NC(=O)[C@@H](NC(=O)OCc1ccccc1)C(C)C)C(=O)CSCc1ccco1	115 to 116 °C
COc1ccc(C(=O)C=CN(C)C)cc1	82 to 85 °C
CCOC(=O)c1nnc2ccc(I)cc2c1O	242 to 244 °C
CCCN(CCC)C1Cc2cc3c(cc2C1)C(=O)N(Cc1ccc(S(N)(=O)=O)cc1)C3=O	190 to 194 °C
CCCCCSC1=NC(c2cccc([N+](=O)[O-])c2)C(C(=O)OCC)=C(C)N1 (stereo not drawn)	104 to 105 °C
NC(=O)CCCC1Cc2ccccc2C1	116 to 118 °C
COC(=O)c1cnn(-c2c(Cl)cc(Cl)cc2Cl)c1N	179 to 180 °C
CCCCOc1cc(/C=C(\OCC)C(=O)O)ccc1OCCc1ccc(NC(C)=O)cc1	160 °C
COC(=O)c1c(Cc2ccc(C(=O)O)cc2)c(=O)c2ccc(Cl)cc2n1-c1ccccc1	258 to 261 °C
Cc1cccc(C)c1Sc1c(O)cc(-c2ccccc2)oc1=O	248 to 249 °C
CC(CSC(=O)C(C)(C)C)C(=O)N1C(C(=O)O)CC2CCCCC21 (stereo not drawn)	134 to 136 °C
COC(=O)c1cc(-c2ccc3c(=O)[nH]c(=O)[nH]c3n2)ccc1OC	301 to 303 °C
O=C(O)CCCCCCCCCCCNC(=O)CCCCCCCCCCBr	122 °C
CCOC(=O)CNc1nc(Cl)ccc1NC(=O)c1ccc(Cl)cc1	157 to 158 °C
COCCOc1ccc(CCCC2OCCO2)c(Oc2ncc(C(F)(F)F)cc2Cl)c1	92 to 92.5 °C
C=CCOC(=O)Cn1c(=O)n(S(=O)(=O)c2ccc(Cl)cc2)c(=O)c2ccccc21	164 to 166 °C
O=C(Nc1ccc2ccc(Cl)nc2n1)c1ccccc1Cl	180 °C
O=C1N(Cc2ccc3c(c2)OCCO3)c2ccccc2C12COc1cc3c(cc12)OCCO3 (stereo not drawn)	120 to 123 °C
OC(CCc1ccccc1)c1cnc2sc3c(n12)CCC3 (stereo not drawn)	117 to 118 °C
CCCn1c(-c2c(Cl)cccc2Cl)nc(-c2ccncc2)c1-c1ccc(Cl)cc1	220 to 222 °C
NC(c1ccccc1CNc1ccnc2cc(Cl)ccc12)c1ccnc2cc(Cl)ccc12 (stereo not drawn)	> 250 °C
NC(=O)c1cc(Br)ccc1Nc1ccncc1	298 to 299 °C

SMILES	melting point
Cn1cc(C(=O)NCc2ccc(Cl)cc2)c(=O)c2cc(CO)sc21	222 to 225 °C
CC(=O)c1ccn2c(C)c(C)nc2c1N	195 to 197 °C
CCOC(=O)C1=C(C)NN=C(C(=O)OC)C1c1ccccc1C (stereo not drawn)	165 °C
CCOc1cc(OCCCc2cn(-c3ccc(C(F)(F)F)cn3)nc2O)ccc1CCC(=O)OC	147 to 148 °C
Cn1c(COc2ccc(CC3SC(=O)NC3=O)cc2)nc2ccc(Oc3ccc(NC(=S)NC4CCCCC4)cc3)cc21 (stereo not drawn)	173 to 174 °C
CC(=O)Oc1ccccc1[C@@H]1SC(C)(C)[C@H](C(=O)O)N1C(C)=O	214 to 216 °C
COc1ccc(C(=O)c2[nH]c(=O)[nH]c2CN(C)C)cc1	165 to 167 °C
C=CC(=O)Oc1ccc(-c2cccc(OC(=O)C=C)c2)cc1	63.6 °C
CC(C)C1CCN(Cc2ccc(COc3cccc4c3C(=O)N(C3CCC(=O)NC3=O)C4=O)cc2)CC1 (stereo not drawn)	220 to 222 °C
O=C1N(Cc2cnc(Br)s2)c2ccccc2C12COc1cc3c(cc12)OCO3 (stereo not drawn)	215 to 217 °C
CC(=O)Nc1c(Cl)cnn(-c2ccccc2)c1=O	177 to 178 °C
Clc1ccc(-c2cnn3cnnc3n2)cc1	> 300 °C
CC12C=CC(=O)C=C1CCC1C2C(=O)CC2(C)C(SCc3ccc(Cl)c(Cl)c3)CCC12 (stereo not drawn)	131 to 133 °C
N#Cc1cccc(NC(=O)c2ccc3ccccc3c2)c1	138 to 140 °C
COc1cc2nc(COc3ccc(CC4SC(=O)NC4=O)cc3)n(C)c(=O)c2cc1OC (stereo not drawn)	252 °C
COC(=O)c1ccc(C=Cc2ccc(OC)cc2)nc1	170 °C
CC(NO)C(=O)OC(C)(C)C (stereo not drawn)	69 to 70 °C
O=C(N[C@H](Cc1ccc(C(F)(F)F)cc1)[C@@H](O)c1ccc(F)cc1F)c1ccc(F)c2ccccc12 (racemic)	194 to 195 °C
CCC(CC)c1nn(-c2ccc(Cl)cn2)cc1CCCOc1c(CC(=O)O)cccc1OC	85 to 86 °C
N#Cc1cccc2c1NC(=O)C21COc2cc3c(cc21)OCO3 (stereo not drawn)	205 to 207 °C
O=C(/C=C/c1ccc(OC(F)(F)F)cc1)/C=C/c1ccc(C(F)(F)F)cc1	97 to 99 °C
C=CCOc1cc(F)c(C#N)c(OC(C(=O)OC)c2ccccc2C)c1 (racemic)	100 to 102 °C
CCOC(=O)C1(NC(C)=O)CC2c3cc(C)ccc3Oc3ccccc3N2C1=O (stereo not drawn)	104 to 108 °C
